The nature of assay [1]: ABTS radical scavenging assay. Conditions: mean ± SD (n = 3). How it is done: (§1) S1.4. DPPH radical scavenging assay […]
S1.5. ABTS radical scavenging assay
The ABTS radical scavenging assay was used also to evaluate the antioxidant activity of compounds 1-11. The ABTS free radical cation (ABTS•+ )was manufactured by reacting ABTS stock solution (7 mM) with potassium persulphate

A short description of assay [2]: DPPH radical scavenging assay. Conditions: mean ± SD (n = 3); NA: no activity. How it is done:
S1.4. DPPH radical scavenging assay
The DPPH radical scavenging assay was used to evaluate the antioxidant activity of compounds 1-11. In a 96-well microplate, 100 µL of DPPH solution (200 µM in ethanol) was added to 100 µL sample in ethanol at graded concentrations ranging from 7 to 500 µM. The mixture was incubated in the dark at room temperature for 30 min. The absorbance of the reaction mixture was measured at 517 nm using a microplate reader. The DPPH scavenging activity was calculated by the following formula: DPPH scavenging activity (%) = (Acontrol- Asample)/Acontrol×100%, where Acontrol was the absorbance of ethanol control without samples, Asample was the absorbance of sample. Ascorbic acid was used as the positive control in the […]

The test system of another assay is α-amylase. Briefly: α-amylase inhibitory activity. In kind it is biochemical. Conditions: for α-Amylase Inhibition at 0.1 mM: mean ± SD (n = 3), NA: no activity; for α-amylase inhibitory effects (in words): weaker than the positive control acarbose. The method, then:
S1.3. Determination of α-amylase inhibitory activity
Phosphate buffer (20 mM, pH 6.9, containing 6 mM NaCl) was used as the […]
µL, 1%, w/v) were mixed and incubated in a 96-well microplate at37 °C for 10 min.
Then, α-amylase solution (50 µL, 0.2 U/mL) was added and the mixture was incubated at 37 °C for an additional 10 min. The reaction was stopped by addition of […]
microplate was immediately heated in 95 °C water bath for 10 min. When the reaction solution cooled to room temperature, allsamples were diluted by adding distilled water (50 µL), and then their absorbance was measured using a microplate reader at […]
starch solution) at 540 nm, thus the inhibitory activity was calculated as (Acontrol-Asample)/Acontrol×100%, in which Asample was the absorbance of the sample and Acontrol was the absorbance of the phosphate buffer control without test samples. Acarbose was used as the positive control.
as §1

For the next assay, the target named is T1, FAS (Gallus gallus, UniProt P12276).
T1 construct: isolated from chicken liver; from tissue; host or cells: chicken liver
Put plainly: FAS inhibitory activity. In kind it is biochemical, chicken. Conditions: mean ± SD (n = 3); NA: no activity. How it is done: S1. Determination of bioactivities
S1.1. Determination of FAS inhibitory activity […]
diluted with potassium phosphate buffer (0.1 M, pH 7.0). Sample solution (100 µL, 20-2000 μM, 37 °C) and FAS substrates (1.8 mL, 37 °C) were mixed in a cuvette, and then FAS solution (100 µL, 37 °C, isolated from chicken liver and kept in ice-bath before use) was added. The absorbance of reaction mixture was monitored by a UV-vis spectrophotometer at340 nm in 1 min. The inhibitory effect was calculated by the following equation: FAS inhibition (%) = (Acontrol-Asample)/Acontrol× 100%, where Acontrolrepresented the FAS activity in the control group (phosphate buffer instead of sample solution), Asamplerepresented the FAS activity in the sample groups. The FAS activity was calculated as (A0 -A1)/1 min, in which A0 was the absorbance of the reaction mixture when the FAS was added, and A1 was the absorbance of the reaction mixture after reaction 1 min. Orlistat was used as the positive control.
FAS substrates: 0.1 M potassium phosphate buffer (pH 7.0), 1 mM ethylene-diaminetetraacetic acid (EDTA), 1 mM dithiothreitol, 3 µM acetyl-coenzyme A, 10 µM […], 35 µM NADPH. […]

For another assay, the system named is α-Glucosidase from yeast. Put plainly: α-glucosidase inhibitory activity. In kind it is biochemical. As to conditions: for α-Glucosidase Inhibition at 0.1 mM: mean ± SD (n = 3), NA: no activity; for α-glucosidase inhibitory effects (in words): weaker than the positive control acarbose. How it is done:
S1. Determination of bioactivities […]
S1.2. Determination of α-glucosidase inhibitory activity […]
diluted with phosphate buffer (0.1 M, pH 6.8). […]
and 4-nitrophenyl α-D-glucopyranoside (pNPG) solution (50 µL, 5 mM) were mixed and incubated in a 96-well microplate at 37 °C for 5 min. α-Glucosidase from yeast (50 µL, 0.2 U/mL) was added and incubated at 37 °C for another 30 min. Finally, 50 µL of Na2CO3 (1M) was added to terminate the reaction. The absorbance of mixture was measured using a microplate reader at a wavelength 405 nm. […]
following equation: α-glucosidase inhibition (%) = (Acontrol- Asample)/Acontrol×100%, where Acontrolrepresented the absorbance of phosphate buffer control without test samples, Asample represented the absorbance of test samples. Acarbose was used as the […]

Each structure is given as a SMILES string. Bounds are passed on as bounds.

We go through eleven compounds from article PMC9657303, “Phenylethanoid and Phenylmethanoid Glycosides from the Leaves of Ligustrum robustum and Their Bioactivities” (Molecules, 2022).

T1 sequence (P12276 2-2512 limits assumed): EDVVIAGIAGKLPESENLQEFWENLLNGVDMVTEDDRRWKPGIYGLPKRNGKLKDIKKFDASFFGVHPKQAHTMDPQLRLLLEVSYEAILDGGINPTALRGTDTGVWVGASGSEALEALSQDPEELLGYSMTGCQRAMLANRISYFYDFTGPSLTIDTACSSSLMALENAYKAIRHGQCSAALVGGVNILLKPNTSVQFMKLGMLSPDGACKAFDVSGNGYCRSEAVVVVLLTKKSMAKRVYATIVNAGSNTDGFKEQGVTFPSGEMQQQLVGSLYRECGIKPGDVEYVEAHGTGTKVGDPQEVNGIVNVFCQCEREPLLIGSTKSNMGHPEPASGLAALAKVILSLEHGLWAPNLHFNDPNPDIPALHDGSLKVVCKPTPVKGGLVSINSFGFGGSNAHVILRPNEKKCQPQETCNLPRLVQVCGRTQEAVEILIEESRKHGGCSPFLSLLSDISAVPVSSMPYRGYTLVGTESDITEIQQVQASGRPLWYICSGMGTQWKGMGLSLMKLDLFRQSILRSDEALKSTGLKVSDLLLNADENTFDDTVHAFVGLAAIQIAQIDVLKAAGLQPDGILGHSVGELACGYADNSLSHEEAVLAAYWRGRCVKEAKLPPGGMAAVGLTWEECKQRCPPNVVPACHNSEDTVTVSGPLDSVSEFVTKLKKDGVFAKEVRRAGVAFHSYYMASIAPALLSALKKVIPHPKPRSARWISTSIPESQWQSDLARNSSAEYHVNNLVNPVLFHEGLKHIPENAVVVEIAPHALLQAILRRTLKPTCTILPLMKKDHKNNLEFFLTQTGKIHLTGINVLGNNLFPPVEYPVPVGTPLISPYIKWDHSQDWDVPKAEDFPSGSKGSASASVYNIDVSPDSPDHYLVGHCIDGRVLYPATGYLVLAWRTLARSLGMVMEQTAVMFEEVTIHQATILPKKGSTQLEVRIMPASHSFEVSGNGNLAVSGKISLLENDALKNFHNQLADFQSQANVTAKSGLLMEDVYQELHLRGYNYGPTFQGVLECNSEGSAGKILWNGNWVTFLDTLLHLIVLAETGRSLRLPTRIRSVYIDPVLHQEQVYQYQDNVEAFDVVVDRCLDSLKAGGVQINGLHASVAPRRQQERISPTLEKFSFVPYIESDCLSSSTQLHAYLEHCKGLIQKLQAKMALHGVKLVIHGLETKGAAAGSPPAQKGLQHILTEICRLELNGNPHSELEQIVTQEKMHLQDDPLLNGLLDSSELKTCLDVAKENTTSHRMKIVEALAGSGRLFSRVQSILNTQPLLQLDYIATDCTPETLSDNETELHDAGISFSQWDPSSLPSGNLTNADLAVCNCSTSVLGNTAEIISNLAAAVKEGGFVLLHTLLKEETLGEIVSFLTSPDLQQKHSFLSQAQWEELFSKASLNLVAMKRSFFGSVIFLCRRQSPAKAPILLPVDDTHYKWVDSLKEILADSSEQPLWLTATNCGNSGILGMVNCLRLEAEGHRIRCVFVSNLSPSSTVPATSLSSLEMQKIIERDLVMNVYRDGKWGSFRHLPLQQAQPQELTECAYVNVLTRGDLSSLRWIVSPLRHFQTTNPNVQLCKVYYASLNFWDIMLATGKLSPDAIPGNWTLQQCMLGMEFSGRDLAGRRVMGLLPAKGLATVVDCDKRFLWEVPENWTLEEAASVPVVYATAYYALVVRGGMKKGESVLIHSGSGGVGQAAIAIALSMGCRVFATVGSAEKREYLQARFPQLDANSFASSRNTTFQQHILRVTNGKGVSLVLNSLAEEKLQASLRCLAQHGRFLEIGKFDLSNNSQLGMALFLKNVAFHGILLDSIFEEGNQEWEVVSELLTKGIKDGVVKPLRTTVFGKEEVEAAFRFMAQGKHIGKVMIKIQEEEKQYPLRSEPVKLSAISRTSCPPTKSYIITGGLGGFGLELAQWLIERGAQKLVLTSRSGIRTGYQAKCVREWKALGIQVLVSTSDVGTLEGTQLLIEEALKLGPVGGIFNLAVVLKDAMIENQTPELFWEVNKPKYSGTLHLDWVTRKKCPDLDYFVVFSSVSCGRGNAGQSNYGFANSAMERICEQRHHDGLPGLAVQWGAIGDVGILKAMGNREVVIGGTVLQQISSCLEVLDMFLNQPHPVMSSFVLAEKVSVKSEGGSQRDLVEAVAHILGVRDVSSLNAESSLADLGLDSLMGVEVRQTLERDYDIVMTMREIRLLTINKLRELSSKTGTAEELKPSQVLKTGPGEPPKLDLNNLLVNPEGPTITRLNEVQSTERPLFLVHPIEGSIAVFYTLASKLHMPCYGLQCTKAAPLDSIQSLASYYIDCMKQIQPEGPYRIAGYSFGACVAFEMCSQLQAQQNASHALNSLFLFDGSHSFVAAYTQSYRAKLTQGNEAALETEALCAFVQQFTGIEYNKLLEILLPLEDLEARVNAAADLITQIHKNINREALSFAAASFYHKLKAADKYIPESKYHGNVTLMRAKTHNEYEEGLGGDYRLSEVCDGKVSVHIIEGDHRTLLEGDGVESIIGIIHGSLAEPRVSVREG

Regarding `O=C1O[C@H]([C@@H](O)CO)C(O)=C1O` [L-(+)-ascorbic acid, reference compound], the 50% inhibitory concentration (IC50) came out at 10.1 ± 0.19 µM in assay [1] and 13.66 ± 0.13 µM in assay [2].
Consider `C[C@@H]1O[C@@H](O[C@@H]2[C@@H](O)[C@@H](O)[C@H](O[C@@H]3[C@@H](O)[C@H](OCCc4ccc(O)cc4)O[C@H](CO)[C@H]3OC(=O)/C=C/c3ccc(O)cc3)O[C@H]2C)[C@H](O)[C@H](O)[C@H]1O` [Compound 7, ligupurpuroside B], for which the concentration for half-maximal inhibition (IC50) in assay [1] was 2.75 ± 0.09 µM; in assay [2], above 250 µM. Further, the “α-Amylase Inhibition at 0.1 mM” value in the assay on α-amylase was determined as 19.9 ± 1.8 d %.
With `CC1OC(OC2C(O)C(COC(=O)C=Cc3ccc(O)cc3)OC(OCCc3ccc(O)cc3)C2O)C(O)C(O)C1O` (stereo not drawn) [Compound 11, (Z)-osmanthuside B6], the concentration for half-maximal inhibition (IC50) in assay [1] is 3.83 ± 0.05 µM; against FAS it was 4.55 ± 0.35 µM; in assay [2], above 250 µM. Further, the “α-Amylase Inhibition at 0.1 mM” value in the assay on α-amylase came out at 23.5 ± 1.7 c %. Moreover, the “α-amylase inhibitory effects (in words)” value in the assay on α-amylase is given as “moderate”.
In turn, `C[C@@H]1O[C@@H](O[C@@H]2[C@@H](O)[C@@H](O)[C@H](O[C@@H]3[C@@H](O)[C@H](OCC(=O)c4ccc(O)c(O)c4)O[C@H](CO)[C@H]3OC(=O)/C=C/c3ccc(O)cc3)O[C@H]2C)[C@H](O)[C@H](O)[C@H]1O` [Compound 3, 2-(3,4-dihydroxyphenyl)-2-oxoethyl 3-O-[α-L-rhamnopyranosyl-(1→4)-α-L-rhamnopyranosyl]-4-O-(trans-p-coumaroyl)-O-β-D-glucopyranoside] showed a half-inhibitory concentration (IC50) in assay [1] of 4.13 ± 0.06 µM. Moreover, in the assay with α-Glucosidase from yeast, the “α-Glucosidase Inhibition at 0.1 mM” value was 42.3 ± 8.7 bc % and the “α-glucosidase inhibitory effects (in words)” value was “moderate”. Moreover, the IC50 in assay [2] was determined as 23.8 ± 0.89 µM.
Consider `CC1OC(OC2C(C)OC(OC3C(O)C(OCCc4ccc(O)cc4)OC(CO)C3OC(=O)C=Cc3ccc(O)cc3)C(O)C2O)C(O)C(O)C1O` (stereo not drawn) [Compound 8, cis-ligupurpuroside B], for which the values for the IC50 in assay [1] and in assay [2] were 4.17 ± 0.06 µM and above 250 µM, respectively.
With `CC1OC(OC2C(C)OC(OC3C(O)C(OCC(O)c4ccc(O)c(O)c4)OC(CO)C3OC(=O)C=Cc3ccc(O)cc3)C(O)C2O)C(O)C(O)C1O` (stereo not drawn) [Compound 2], the concentration for half-maximal inhibition (IC50) in assay [1] is 10.6 ± 0.48 µM; in assay [2], 43.2 ± 1.06 µM. Further, in the assay on α-amylase, the “α-Amylase Inhibition at 0.1 mM” value amounted to 10.6 ± 2.3 f %.
Regarding `C[C@@H]1O[C@@H](O[C@@H]2[C@@H](O)[C@@H](O)[C@H](O[C@@H]3[C@@H](O)[C@H](OCCc4ccc(O)cc4)O[C@H](CO)[C@H]3OC(=O)/C=C/c3ccc(O)c(O)c3)O[C@H]2C)[C@H](O)[C@H](O)[C@H]1O` [Compound 9, ligurobustoside N], the half-maximal inhibitory concentration (IC50) in assay [1] was 2.68 ± 0.05 µM; at FAS, 5.61 ± 0.44 µM; in assay [2], 29.2 ± 0.37 µM. In the assay on α-amylase, the “α-Amylase Inhibition at 0.1 mM” value turned out to be 15.9 ± 3.1 e %. In the assay with α-Glucosidase from yeast, the “α-Glucosidase Inhibition at 0.1 mM” value was found to be 25.4 ± 4.1 d %.
`C[C@@H]1O[C@@H](O[C@@H]2[C@@H](O)[C@H](OCc3ccccc3)O[C@H](COC(=O)/C=C/c3ccc(O)cc3)[C@H]2O)[C@H](O)[C@H](O)[C@H]1O` [Compound 5, benzyl 3-O-(α-L-rhamnopyranosyl)-6-O-(trans-p-coumaroyl)-O-β-D-glucopyranoside] yielded an IC50 in assay [1] of 4.86 ± 0.06 µM. Besides, in the assay on α-Glucosidase from yeast, the “α-Glucosidase Inhibition at 0.1 mM” value turned out to be 45.1 ± 2.5 b % and the “α-glucosidase inhibitory effects (in words)” value is on record as “moderate”. In assay [2], this compound yielded a 50% inhibitory concentration (IC50) above 250 µM.
At FAS, `CC1OC(OC2C(O)C(OCc3ccccc3)OC(CO)C2OC(=O)C=Cc2ccc(O)cc2)C(O)C(O)C1O` (stereo not drawn) [Compound 4] showed an IC50 of 6.49 ± 0.27 µM.
For `CC1OC(OC2C(O)C(OCCc3ccc(O)cc3)OC(CO)C2OC(=O)C=Cc2ccc(O)cc2)C(O)C(O)C1O` (stereo not drawn) [Compound 10, osmanthuside D], the concentration for half-maximal inhibition (IC50) in assay [1] turned out to be 3.34 ± 0.02 µM. Also, in the assay with α-amylase, the “α-Amylase Inhibition at 0.1 mM” value was 26.1 ± 1.9 c % and the “α-amylase inhibitory effects (in words)” value was “moderate”. In the assay with α-Glucosidase from yeast, the “α-Glucosidase Inhibition at 0.1 mM” value came to 19.3 ± 5.6 e %. Further, the IC50 in assay [2] is above 250 µM.
As for `C[C@@H]1O[C@@H](O[C@@H]2[C@@H](O)[C@H](OCc3ccccc3)O[C@H](COC(=O)/C=C\c3ccc(O)cc3)[C@H]2O)[C@H](O)[C@H](O)[C@H]1O` [Compound 6, benzyl 3-O-(α-L-rhamnopyranosyl)-6-O-(cis-p-coumaroyl)-O-β-D-glucopyranoside], the midpoint of inhibition in assay [1], the IC50, lay at 20.7 ± 0.22 µM. In the assay with α-Glucosidase from yeast, the “α-Glucosidase Inhibition at 0.1 mM” value was 36.5 ± 1.5 c %.
